Measurements from patent publication US7803795B2, “Phthalazine derivatives as parp inhibitors” (Janssen Pharmaceutica N.V., priority 2004, dated 2010).

Tests used:
PARP-1 enzyme = molecular target: T1, PARP-1 enzyme (Homo sapiens, UniProt P09874); experiment: in vitro filtration assay for PARP-1 inhibitory activity; assay type: biochemical; details: [32P]-NAD, histones, nicked DNA; dose-response 10^-5 M to 10^-8 M; read-out: in vitro filter assay PARP-1 pIC50 (converted)
T1 construct: made in house
T1 sequence (P09874 whole entry): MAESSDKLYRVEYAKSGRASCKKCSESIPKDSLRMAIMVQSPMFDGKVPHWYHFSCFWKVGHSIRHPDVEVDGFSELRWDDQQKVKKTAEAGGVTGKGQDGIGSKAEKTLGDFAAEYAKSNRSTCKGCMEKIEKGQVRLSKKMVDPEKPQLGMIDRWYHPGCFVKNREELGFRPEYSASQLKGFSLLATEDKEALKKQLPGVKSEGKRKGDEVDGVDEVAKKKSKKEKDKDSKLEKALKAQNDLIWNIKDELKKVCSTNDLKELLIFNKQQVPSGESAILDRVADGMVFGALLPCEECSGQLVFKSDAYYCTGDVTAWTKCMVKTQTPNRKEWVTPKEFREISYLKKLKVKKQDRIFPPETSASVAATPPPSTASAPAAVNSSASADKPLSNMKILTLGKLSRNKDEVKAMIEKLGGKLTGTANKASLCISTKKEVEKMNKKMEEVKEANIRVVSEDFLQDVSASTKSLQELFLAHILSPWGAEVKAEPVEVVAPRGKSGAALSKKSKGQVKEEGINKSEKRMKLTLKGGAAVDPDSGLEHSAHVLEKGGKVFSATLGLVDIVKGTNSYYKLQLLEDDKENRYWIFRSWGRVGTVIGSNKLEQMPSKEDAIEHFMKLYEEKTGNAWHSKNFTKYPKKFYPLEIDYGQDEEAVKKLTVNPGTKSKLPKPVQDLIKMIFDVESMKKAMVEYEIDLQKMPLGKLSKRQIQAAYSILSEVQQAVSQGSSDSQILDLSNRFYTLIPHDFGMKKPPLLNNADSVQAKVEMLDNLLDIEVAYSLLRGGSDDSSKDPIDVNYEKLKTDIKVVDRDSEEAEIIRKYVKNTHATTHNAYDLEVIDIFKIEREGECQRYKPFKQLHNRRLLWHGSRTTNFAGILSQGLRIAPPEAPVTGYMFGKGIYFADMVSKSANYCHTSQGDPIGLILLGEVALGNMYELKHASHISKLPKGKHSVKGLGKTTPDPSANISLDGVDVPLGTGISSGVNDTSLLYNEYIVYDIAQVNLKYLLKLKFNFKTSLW
Method: In Vitro Filtration Assay for PARP-1 Inhibitory Activity
Compounds of the present invention were tested in an in vitro filtration assay assessing PARP-1 activity (triggered in the presence of nicked DNA) by means of its histone poly (ADP-ribosylation activity using [^32P]-NAD as ADP-ribosyl donor. The radioactive ribosylated histones were precipitated by trichloroacetic acid (TCA) in 96-well filterplates and the incorporated [^32P] measured using a scintillation counter
A mixture of histones (stock solution: 5 mg/ml in H2O), NAD^+ (stock solution: 100 mM in H2O), and [^32P]-NAD^+ in incubation buffer (50 mM Tris/HCl, pH 8; 0.2 mM DTT; 4 mM MgCl2) was made. A mixture of the PARP-1 enzyme (5-10 μg/ml) and nicked DNA was also made. The nicked DNA was prepared as described in the in vitro SPA for PARP-1 inhibitory activity. Seventy-five μl of the PARP-1 enzyme/DNA mixture together with 1 μl of compound in DMSO and 25 μl of histones-NAD^+/[^32P]-NAD^+ mixture was added per well of a 96-well filterplate (0.45 μm, supplier Millipore). The final concentrations in the incubation mixture were 2 μg/ml for the histones, 0.1 mM for the NAD^+, […] (0.5 μC) for the [^32P]-NAD^+ and 2 μg/ml for the nicked DNA. Plates were incubated for 15 min. at room temperature and the reaction was terminated by the addition of 10 μl ice cold 100% TCA followed by the addition of 10 μl ice-cold BSA solution (1% in H2O). The protein fraction was allowed to precipitate for 10 min. at 4° C. and plates were vacuum filtered. The plates were subsequently washed with, for each well, 1 ml of 10% ice cold TCA, 1 ml of 5% ice cold TCA and 1 ml of 5% TCA at room temperature. Finally 100 μl of scintillation solution (Microscint 40, Packard) was added to each well and the plates were transferred to a TopCountNXT™ (supplier: Packard) for scintillation counting and values were expressed as counts per minute (cpm). For each experiment, controls (containing PARP-1 enzyme and DMSO without compound), a blank incubation (containing DMSO but no PARP-1 enzyme or compound) and samples (containing PARP-1 enzyme and compound dissolved in DMSO) were run in parallel. All compounds tested were dissolved and eventually further diluted in DMSO. In first instance, compounds were tested at a concentration of 10^−5M. […] In each test, the blank value was subtracted from both the control and the sample values. The control sample represented maximal PARP-1 enzyme activity. For each sample, the amount of cpm was expressed as a percentage of the mean cpm value of the controls. When appropriate, IC50-values (concentration of the drug, needed to reduce the PARP-1 enzyme activity to 50% of the control) were computed using linear interpolation between the experimental points just above and below the 50% level. Herein the effects of test compounds are expressed as pIC50 (the negative log value of the IC50-value). As a reference compound, 4-amino-1,8-naphthalimide was included to validate the filtration assay.

TANK-2 enzyme = molecular target: T2, TANK-2 enzyme (Homo sapiens, UniProt Q9H2K2); experiment: in vitro Scintillation Proximity Assay (SPA) for TANK-2 inhibitory activity; assay type: biochemical
T2 construct: His tag (inferred from capture on a Ni-coated plate); made in house
T2 sequence (Q9H2K2 1-1166): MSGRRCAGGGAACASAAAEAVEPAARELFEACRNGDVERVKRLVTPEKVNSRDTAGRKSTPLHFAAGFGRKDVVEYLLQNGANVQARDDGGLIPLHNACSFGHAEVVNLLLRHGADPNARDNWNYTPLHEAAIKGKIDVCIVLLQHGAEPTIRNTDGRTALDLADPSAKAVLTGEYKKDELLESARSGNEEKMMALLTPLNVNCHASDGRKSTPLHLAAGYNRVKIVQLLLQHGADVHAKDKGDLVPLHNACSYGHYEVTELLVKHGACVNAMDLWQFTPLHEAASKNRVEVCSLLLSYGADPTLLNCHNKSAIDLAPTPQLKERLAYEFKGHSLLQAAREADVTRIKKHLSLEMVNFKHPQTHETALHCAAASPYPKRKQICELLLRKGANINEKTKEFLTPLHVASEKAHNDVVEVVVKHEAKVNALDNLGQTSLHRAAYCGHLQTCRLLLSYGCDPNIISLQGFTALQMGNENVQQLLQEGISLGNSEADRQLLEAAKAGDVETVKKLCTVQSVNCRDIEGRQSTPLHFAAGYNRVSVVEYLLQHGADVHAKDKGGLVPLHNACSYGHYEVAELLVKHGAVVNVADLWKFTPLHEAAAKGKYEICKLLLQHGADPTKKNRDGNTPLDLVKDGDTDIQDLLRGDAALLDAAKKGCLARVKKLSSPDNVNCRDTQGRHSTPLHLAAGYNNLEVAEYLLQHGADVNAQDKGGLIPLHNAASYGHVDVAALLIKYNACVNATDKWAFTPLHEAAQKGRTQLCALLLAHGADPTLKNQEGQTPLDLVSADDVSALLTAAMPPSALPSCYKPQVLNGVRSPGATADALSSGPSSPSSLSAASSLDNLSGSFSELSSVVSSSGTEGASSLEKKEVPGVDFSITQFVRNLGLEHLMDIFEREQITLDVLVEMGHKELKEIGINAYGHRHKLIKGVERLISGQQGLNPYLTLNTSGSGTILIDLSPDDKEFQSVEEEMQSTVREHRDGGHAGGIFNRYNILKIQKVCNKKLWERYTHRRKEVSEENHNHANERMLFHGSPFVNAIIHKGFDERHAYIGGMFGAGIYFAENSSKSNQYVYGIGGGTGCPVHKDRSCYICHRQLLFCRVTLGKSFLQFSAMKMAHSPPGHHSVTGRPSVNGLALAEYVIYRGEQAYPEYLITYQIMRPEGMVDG
Method: In Vitro Scintillation Proximity Assay (SPA) for Tank-2 Inhibitory Activity
Compounds of the present invention were tested in an in vitro assay based on SPA technology with Ni Flash plates (96 or 384 well).
In principle, the assay relies upon SPA technology for the detection of auto-poly(ADP-ribosylation of TANK-2 protein using [^3H]-nicotinamide adenine dinucleotide ([^3H]-NAD^+) as ADP-ribosyl donor.
A stock solution of [^3H]-NAD^+/NAD was made by adding 64.6 μl of [^3H]-NAD^+ (0.1 mCi/ml, supplier: Perkin Elmer) and 46.7 μl NAD-stock (10.7 mM, stored at −20° C., supplier Roche) to 1888.7 μl assay buffer (60 mM Tris/HCl, pH 7.4; 0.9 mM DTT; 6 mM MgCl2). The TANK-2 enzyme was produced as described in EP1238063.60 μl of assay buffer, together with 1 μl of compound in DMSO, 20 μl of [^3H]-NAD^+/NAD and 20 μl of TANK-2 enzyme (final concentration 6 μg/ml) was added per well into a 96-well Ni-coated flash plate (Perkin Elmer). After incubation of the mixture for 120 min. at room temperature, the reaction was terminated by adding 60 μl of stopsolution (42.6 mg NAD in 6 ml H2O). The plates were covered with a plate sealer and placed in a TopCountNXT™ (Packard) for scintillation counting. Values were expressed as counts per minute (cpm). For each experiment, controls (containing TANK-2 enzyme and DMSO without compound), a blank incubation (containing DMSO but no TANK-2 enzyme or compound) and samples (containing TANK-2 enzyme and compound dissolved in DMSO) were run in parallel. All compounds tested were dissolved and eventually further diluted in DMSO. […] In each test, the blank value was subtracted from both the control and the sample values. The control sample represented maximal TANK-2 enzyme activity. For each sample, the amount of cpm was expressed as a percentage of the mean cpm value of the controls. When appropriate, IC50-values (concentration of the drug, needed to reduce the TANK-2 enzyme activity to 50% of the control) were computed using linear interpolation between the experimental points just above and below the 50% level. Herein the effects of test compounds are expressed as pIC50 (the negative log value of the IC50-value). As reference compounds, 3-aminobenzamide and 4-amino-1,8-naphthalimide were included to validate the SPA assay. Herein the assay was described using 96-well plates. In the assay using 384-well plates the same final concentrations were used and volumes were adapted.

[1] = system: heart (ischemia and reperfusion); details: rabbits, cited from earlier work
distal colon (colitis) = details: rats, colitis by intraluminal trinitrobenzene sulfonic acid in 50% ethanol; cited from earlier work

| SMILES | melting point [°C] | IC50 (PARP-1 enzyme) [nM] | IC50 (TANK-2 enzyme) [nM] | reductions in infarct size in the heart ([1]; single injection 10 mg/kg, one minute before occlusion or one minute before reperfusion) | effect on inflammatory response and distal colon (distal colon (colitis)) | reduced infarct size ([1]; single injection 1 mg/kg) |
| --- | --- | --- | --- | --- | --- | --- |
| NCCN1CCC(c2n[nH]c(=O)c3ccccc23)CC1 [Compound 8] | 202 | 29 | > 10000 |  |  |  |
| CCOC(=O)N1CC[C@H](Nc2n[nH]c(=O)c3ccccc23)C[C@@H]1Cc1ccccc1 [Compound 16] | 140 | 378 | > 10000 |  |  |  |
| O=c1[nH]nc(C2CCN(CC(O)COc3ccc(F)cc3)CC2)c2ccccc12 (centres unmarked) [Compound 2] | 226.9 | 17.2 |  |  |  |  |
| CC(=O)N1CCC(c2n[nH]c(=O)c3ccccc23)CC1 [Compound 5] | 222 | 270 | > 10000 |  |  |  |
| N#CCN1CCC(c2n[nH]c(=O)c3ccccc23)CC1 [Compound 7] | 259 | 88.9 | 9620 |  |  |  |
| NC(=O)c1cccc(N)c1 [3-amino-benzamide] |  |  |  | 32-42% | reduced the inflammatory response |  |
| NC(=O)N1CCC(c2n[nH]c(=O)c3ccccc23)CC1 [Compound 6] | > 300 | 195 | > 10000 |  |  |  |
| O=c1[nH]nc(N[C@H]2CCN[C@@H](Cc3ccccc3)C2)c2ccccc12 [Compound 10] | 238 | 24.3 | > 10000 |  |  |  |
| Oc1cccc2c(O)nccc12 [1,5-dihydroxyisoquinoline] |  |  |  |  |  | 38-48% |
| NCC1CCN(c2n[nH]c(=O)c3ccccc23)CC1 [Compound 9] | 182 | 15.5 | > 10000 |  |  |  |
